The nature of data set [1]: Stability in water-methanol solution (residual ratio by HPLC). It counts as physicochemical. The following applies: for Residual Ratio: dissolved in 15 mL water-methanol (1:1), left at room temperature for 35 days, HPLC; for Half-Life: solution in water-methanol (1:1), room temperature. As to the method: A curcumin monoglucuronic acid conjugate (3.62 mg) and a sodium salt of the curcumin monoglucuronic acid conjugate (3.44 mg) were each dissolved in 15 mL of water-methanol (1:1). The prepared solution was left at room temperature for 35 days, and a residual ratio was determined by HPLC.

Data set [2] is described as follows: Solubility in distilled water. Format: physicochemical. The following applies: 100 mg in 1 mL of distilled water.

With `COc1cc(/C=C/C(=O)CC(=O)/C=C/c2ccc(O[C@@H]3O[C@H](C(=O)[O-])[C@@H](O)[C@H](O)[C@H]3O)c(OC)c2)ccc1O.[Na+]` [sodium(2S,3S,4S,5R,6S)-3,4,5-trihydroxy-6-(4-((1E,6E)-7-(4-hydroxy-3-methoxyphenyl)-3,5-dioxohepta-1,6-dien-1-yl)-2-methoxyphenoxy)tetrahydro-2H-pyran-2-carboxylate], in data set [1], the “Residual Ratio” value was found to be 93.8% and the Half-Life was 378.4 days. Besides, in data set [2], the Solubility in distilled water was above 100 mg/mL.
The like results for `COc1cc(/C=C/C(=O)CC(=O)/C=C/c2ccc(O[C@@H]3O[C@H](C(=O)O)[C@@H](O)[C@H](O)[C@H]3O)c(OC)c2)ccc1O` [curcumin monoglucuronic acid conjugate, curcumin monoglucuronide] were, in that order, 80.8%, 126.1 days and “hardly dissolved”.

(Values after patent US20230265118A1, “SALT OF CURCUMIN MONOGLUCURONIDE” (THERABIOPHARMA INC., priority 2020, published 2023).)
